13 compounds from patent US8557823B2, “Family of PFKFB3 inhibitors with anti-neoplastic activities” (Advanced Cancer Therapeutics, LLC, priority 2007, dated 2013) can be followed below.

For series [1], the system named is Jurkat. Nature of the series: Cancer cell proliferation, Alamar Blue assay 72 hours, Jurkat. As to conditions: Homo sapiens, Jurkat, 72 h. It counts as cell-based. The procedure: (§1) The ability of the compounds described herein to kill or inhibit the proliferation of cancer cells was measured using either the MTT assay, the Alamar Blue assay, or the Cell Titer Glow® assay using 48 or 72 hours exposure. […] The procedures are briefly described below. Cells of the desired tumor cell line were plated at 2×10^5 cells/ml in 96 well plates. Twice the indicated concentrations of the compounds of the invention were added to cells the following day in an equal volume of media. 72 hours later, cells were lysed and subjected to ATP determination using the CellTiter Glo-Luminescent Cell Viability Assay kit (Promega, Madison, Wis.). Experiments were done in triplicate. When using the MTT assay or the Alamar blue assay, the experimental conditions are essentially similar; at the end of the incubation period, 20 microl of the MTT solution is added per well and the samples are incubated for an additional four hours, rinsed and the absorbance at 570 nm measured. Results for the inhibition of cells proliferation are reported as IC50 as commonly done (the concentration leading to a 50% inhibition of proliferation of the cell population) and are listed in the Tables below. Table 4 lists the IC50 for the compounds of the invention in several cell lines including Jurkat, Calu-6, NCI-H82, U937, or NCI-H1437 cancer cell lines. Table 5 lists the IC50 of PFK-070 in a panel of 10 cell lines.

For series [2], the system named is U937. Nature of the series: Cancer cell proliferation, Alamar Blue assay 72 hours, U937. It counts as cell-based. As to conditions: Homo sapiens, U-937. The procedure:
as §1
For orientation: Resazurin is reduced to fluorescent resorufin, in cell work by metabolically active cells.

The subject of series [3] is NCI-H82. Nature of the series: Cancer cell proliferation, Alamar Blue assay 72 hours, NCI-H82. The class given is cell-based. Particulars: Homo sapiens. The procedure: as §1
The subject of series [4] is Calu-6. Nature of the series: Cancer cell proliferation, Alamar Blue assay 72 hours, Calu-6. The class given is cell-based. As to conditions: Homo sapiens. As to the method: as §1
Series [5] relates to NCI-H1437. Nature of the series: Cancer cell proliferation, Alamar Blue assay 72 hours, NCI-H1437. As to conditions: Homo sapiens. The class given is cell-based. The procedure: as §1
A short description of series [6]: Microsomal stability in human liver microsomes. It counts as in vitro ADME. As to conditions: 0 min. The procedure: Microsomal stability in vitro in different biologic media (liver microsomes, S9 fraction, hepatocytes) and species is ascertained to evaluate the rate at which a compound undergoes metabolism in the experimental in vitro conditions. […] Experimental conditions are briefly described here: the stability in human liver microsomes of several compounds was done over […] at 37° C. using pooled mixed gender human liver microsomes. These liver microsomes were prepared at 1.0 mg/ml of microsomal protein in a 100 mM potassium phosphate pH 7.4 buffer with 1 mM NADPH. The media was incubated at 37° C. with the compound in solution in DMSO. The concentration of the compound was followed by LC/MS-MS as a function of time. […] Testosterone was used as a positive control. The same experiment was performed with mouse, rat or dog liver microsomes instead of human liver microsomes.

Series [7] in a line: Solubility in dosing solution Cre:EtOH:Saline. It counts as physicochemical. Particulars: Cremophor:EtOH:Saline 5:5:90, aqueous with cosolvent or surfactant or cyclodextrin, kinetic from dmso stock; 5:5:90 Cremophor:EtOH:Saline, after 24 hours at room temperature. An excerpt: (§2) Chemical properties of the compounds of the invention were investigated, mainly the solubility in several solvents and pharmaceutically accepted excipients or dosing solutions and the stability of these solutions. […] The increase in solubility when comparing the effect of chemical substituents is unpredictable and surprising if one compares the solubility values of PFK-070 to PFK-091 and PFK-070 to PFK-141 and 145 in a dosing solution that could be used to treat cancer patients (See Table 8A below). Briefly, selected compounds of the invention are dissolved in a small volume of the solvents/excipients of interest (Cremophor, or Cremophor:etoh or Tween80:etoh) at room temperature and diluted 1:9 in saline and left at room temperature for over 8 or 24 hours. Both the physical (absence of a precipitate) and the chemical stability (less than 5% degradation) of the solutions are measured (observation and HPLC after filtration).

The test system of series [8] is Jurkat cells. Nature of the series: Inhibition of 2-deoxyglucose uptake, Example 14. The class given is cell-based. Particulars: Homo sapiens, 3 hours. The procedure:
Inhibition of PFKFB3 results in inhibiting glycolysis. Several feedback or feedforward activation and inhibition mechanisms exist so that, by a feedback mechanism, inhibiting the activity of PFKFB3 might inhibit glucose uptake by cells. An assay was developed to determine if there was inhibition of glucose uptake following exposure to the compounds on the invention. Briefly, Jurkat cells were plated at 1×10^5/mL in RPMI 1640 supplemented with 10% fetal bovine serum and 50 μg/mL gentamicin sulfate. Cells were immediately treated with vehicle or 0.5 μmol/L of the compound of the invention for 3 hours and subsequently placed in glucose-free RPMI 1640 for 30 min. ^14C-2-deoxyglucose (0.25 μCi/mL; Perkin Elmer) was added for an additional 60 min and cells were then washed three times with ice-cold RPMI 1640 containing no glucose. Cell lysates were collected in 500 μL of 0.1% SDS, and scintillation counts (counts/min) were measured on 400 μL of lysate. Counts were normalized to protein concentration.

Series [9] deals with T1, PFKFB3, the recombinant protein (Homo sapiens, UniProt Q16875).
T1 construct: made in house; host or cells: E. coli
T1 sequence (Q16875 whole entry): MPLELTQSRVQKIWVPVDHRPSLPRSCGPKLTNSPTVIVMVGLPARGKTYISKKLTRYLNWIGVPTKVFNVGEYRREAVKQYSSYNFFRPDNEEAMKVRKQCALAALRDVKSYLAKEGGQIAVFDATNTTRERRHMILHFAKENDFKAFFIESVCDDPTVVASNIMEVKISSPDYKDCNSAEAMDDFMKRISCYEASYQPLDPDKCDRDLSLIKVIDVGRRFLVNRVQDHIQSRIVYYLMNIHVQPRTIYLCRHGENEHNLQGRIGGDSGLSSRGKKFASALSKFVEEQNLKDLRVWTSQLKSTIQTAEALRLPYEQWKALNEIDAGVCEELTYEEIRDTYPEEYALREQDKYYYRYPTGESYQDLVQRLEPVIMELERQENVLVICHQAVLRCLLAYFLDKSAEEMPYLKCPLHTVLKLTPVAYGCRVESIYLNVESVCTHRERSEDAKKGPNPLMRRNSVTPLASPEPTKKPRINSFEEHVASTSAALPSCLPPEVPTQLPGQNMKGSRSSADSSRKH
Nature of the series: Inhibition of recombinant PFKFB3 (Adapta Kinase assay). The class given is biochemical. As to conditions: read-out: IC50 EArec. As to the method:
PFKFB3 was prepared by expression in E. coli and purified by GST column and column chromatography. […] The recombinant protein was pure and active as determined by the results of a kinase activity assay commercially available (Adapta® Kinase assay).

Series [10] in a line: Solubility profile in aqueous media. The class given is physicochemical. As to conditions: 23 °C, aqueous buffer.
Series [11] in a line: Solution stability in clear and amber vials. It counts as physicochemical. As to conditions: Cre:EtOH:Saline.
Source text: as §2
Furthermore, the solution stability of the compounds was investigated and it was discovered that, in normal conditions, they lack the appropriate solution stability as they undergo a rapid photoisomerization; this lack of solution stability is such that methods to prevent these compounds from reacting in solutions are necessary if these compounds are to be used as chemotherapeutic agents for the treatment of cancer patients.

Each structure is given as a SMILES string. In brackets after ≈: the same amount, converted by molar mass. Where a name gives a salt, the structure may show the parent alone. Some results are limits rather than exact numbers.

As for `NC(=O)c1ccc(C(=O)/C=C/c2ccc3ccccc3n2)cc1` [ACT-PFK-091, 4-(3-Quinolin-2-yl-acryloyl)-benzamide], the IC50 (in general, the point on the concentration scale where inhibition reaches its midpoint) in series [1] turned out to be 600 nM; in series [2], 400 nM; in series [3] it was 700 nM; in series [4], 200 nM; in [5], 4200 nM. Further, the “Mean metabolized (%)” value in series [6] worked out at 0%. Further, in series [7], the solubility (usually the concentration that dissolves in the medium under given conditions) at 24 h came out at 200 µg/mL (≈ 662 µM). Further, 0.5 µM produced 11% inhibition in series [8].
Consider `Cc1cccc2ccc(/C=C/C(=O)c3ccncc3)nc12` [ACT-PFK-141, 3-(8-Methyl-quinolin-2-yl)-1-pyridin-4-yl-propenone], for which the IC50 in series [1] was 900 nM; in series [3], 1100 nM; in series [5], 5400 nM; in series [9], 210 ± 51 nM. Also, in [6], the “Mean metabolized (%)” value stood at 0%. Further, in series [7], the solubility at 24 h is 800 µg/mL (≈ 2920 µM).
As to `O=C(/C=C/c1ccc2ccccc2n1)c1ccccn1` [ACT-PFK-085, 1-Pyridin-2-yl-3-quinolin-2-yl-propenone], the half-maximal inhibitory concentration (IC50) in series [1] turned out to be 4900 nM; in series [2], 2900 nM; in series [3] it was 2700 nM; in series [4], 6900 nM. In [8], the inhibition – broadly, the percentage by which the read-out fell short of the control – at 0.5 µM was found to be 31%.
Consider `Cc1ccc2ccc(/C=C/C(=O)c3ccncc3)nc2c1` [ACT-PFK-154, 3-(7-Methyl-quinolin-2-yl)-1-pyridin-4-yl-propenone], for which, in series [9], the IC50 amounted to 622 ± 39 nM. The “Mean metabolized (%)” value in series [6] is on record as 0%.
For the compound `Cc1ccc2ccc(/C=C/C(=O)c3ccncc3)nc2c1` [PFK-154, HCl, 3-(7-Methyl-quinolin-2-yl)-1-pyridin-4-yl-propenone], the figures for the solubility in [10] (pH = 5) and in series [10] (pH = 7) were 2400 µg/mL and 3400 µg/mL, respectively.
On to `CNc1cccc2ccc(/C=C/C(=O)c3ccncc3)nc12` [ACT-PFK-151, 3-(8-Methylamino-quinolin-2-yl)-1-pyridin-4-yl-propenone], for which the IC50 in series [9] came out at 289 ± 56 nM. The “Mean metabolized (%)” value in series [6] is reported as 0%. The solubility at 24 h in [7] amounted to 1900 µg/mL (≈ 6570 µM).
As to `O=C(/C=C/c1ccc2ccccc2n1)c1ccnc(F)c1` [ACT-PFK-143, 1-(2-Fluoro-pyridin-4-yl)-3-quinolin-2-yl-propenone], the IC50 was determined as 1700 nM in series [1], 2600 nM in series [3], 4300 nM in [5] and 654 ± 95 nM in series [9].
`Cc1cccc2ccc(/C=C/C(=O)c3ccncc3)nc12` [PFK-141, HCl, 3-(8-Methyl-quinolin-2-yl)-1-pyridin-4-yl-propenone]: the solubility in series [10] (pH = 5) is 1700 µg/mL; in series [10] (pH = 7) it was 1900 µg/mL.
In the case of `O=C(/C=C/c1ccc2cccc(F)c2n1)c1ccncc1` [ACT-PFK-145, 3-(8-Fluoro-quinolin-2-yl)-1-pyridin-4-yl-propenone], the IC50 in [1] came to 900 nM; in series [3], 1500 nM; in [5], 4700 nM; in series [9], 294 ± 38 nM. Moreover, the “Mean metabolized (%)” value in series [6] stood at 0%. The compound also came in with a solubility at 24 h in [7] of 100 µg/mL (≈ 359 µM).
As to `O=C(/C=C/c1ccc2cc(O)ccc2n1)c1ccncc1` [ACT-PFK-149, 3-(6-Hydroxy-quinolin-2-yl)-1-pyridin-4-yl-propenone], the 50% inhibitory concentration (IC50) in series [9] was found to be 811 ± 266 nM. In series [7], this compound registered a solubility at 24 h of 300 µg/mL (≈ 1090 µM).
For `Nc1ccc(C(=O)/C=C/c2ccc3ccccc3n2)cc1` [ACT-PFK-089, 1-(4-Amino-phenyl)-3-quinolin-2-yl-propenone], the IC50 in series [1] amounted to 4200 nM; in series [2] it was 1600 nM; in series [3], 900 nM; in series [4], 2100 nM.
`O=C(/C=C/c1ccc2ccccc2n1)c1ccccc1` [ACT-PFK-076, 1-Phenyl-3-quinolin-2-yl-propenone]: the IC50 in series [1] was 6400 nM; in [2] it was 2500 nM; in series [3], 4000 nM; in [4], 3300 nM. This compound had an inhibition at 0.5 µM in series [8] of 27%.
`O=C(/C=C/c1ccc2cccc(O)c2n1)c1ccncc1` [PFK-070, HCl, 3-(8-Hydroxy-quinolin-2-yl)-1-pyridin-4-yl-propenone]: the “Solubility stability, Amber Vials” value in series [11] (0 hrs) is 1000 µg/mL; in series [11] (2 hrs), “No change”; in series [11] (4 hrs), “No change”; in [11] (8 hrs), “No change”. The “appearance of solution, Clear Vials” value in series [11] (2 hrs), in series [11] (4 hrs) and in series [11] (8 hrs) was “Change in color” throughout. The compound further gave a solubility at 0 h in [11] (Cremophor:EtOH:Saline solution, aqueous with cosolvent or surfactant or cyclodextrin, kinetic from dmso stock, 0 hrs) of 1000 µg/mL. The same compound had a solubility at 2 h in [11] (Cremophor:EtOH:Saline solution, aqueous with cosolvent or surfactant or cyclodextrin, kinetic from dmso stock, 2 hrs) of 900 µg/mL. The solubility at 4 h in series [11] (Cremophor:EtOH:Saline solution, aqueous with cosolvent or surfactant or cyclodextrin, kinetic from dmso stock, 4 hrs) came to 800 µg/mL. Moreover, in series [11] (Cremophor:EtOH:Saline solution, aqueous with cosolvent or surfactant or cyclodextrin, kinetic from dmso stock, 8 hrs), the solubility at 8 h is < 700 µg/mL.
